Assay results taken from patent EP1724268A1, “COMPOUND HAVING TGF-BETA INHIBITORY ACTIVITY AND PHARMACEUTICAL COMPOSITION CONTAINING SAME” (KIRIN BEER KABUSHIKI KAISHA, priority 2004, dated 2005).
Where two headings read alike, the source gives them in different places.

Test system: TGFβ signal
Test: TGFβ signal inhibitory activity, (SBE)4-Luc reporter in A549 cells (Test Examples 1A and 1B)
Format: cell-based, human
Details: Homo sapiens, A549, read-out: TGFβ inhibition rate, %
In short: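 Compounds at 3 µM and 10 µM (some 1 µM) were added with 2 ng/ml TGFβ-1 to A549 cells stably expressing an SBE-driven luciferase, then cultured 4 hr. Chemiluminescent luciferase signal gave % inhibition versus TGFβ-alone and no-TGFβ controls.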

[1] = test compound 3 µM, Reference Examples, Table 1B
[2] = test compound 10 µM, Reference Examples, Table 1B
[3] = 3 µM, compounds of Reference Examples (Test Example 1B)
[4] = 10 µM, compounds of Reference Examples (Test Example 1B)
[5] = test compound 3 µM, TGFβ-1 2 ng/ml, 4 hr, Table 1A
[6] = test compound 10 µM, TGFβ-1 2 ng/ml, 4 hr, Table 1A

| Structure (SMILES) | inhibition at 3 µM [1] [%] | inhibition at 10 µM [2] [%] | further results |
| --- | --- | --- | --- |
| COC(=O)c1cc2ccccc2cc1Oc1ccnc2cc(OC)c(OC)cc12 [Compound r79, Methyl 3-[(6,7-Dimethoxy-4-quinolyl)oxy]naphthalene-2-carboxylate] | 97 | 100 |  |
| CCC(=O)c1cc(C)ccc1Oc1ccnc2cc(OC)c(OC)cc12 [Compound r48] | 98 | 100 |  |
| COc1cc2nccc(Oc3ccc4ncccc4c3Cl)c2cc1OC [r298] |  |  | inhibition at 3 µM [3]: 30%; inhibition at 10 µM [4]: 75% |
| COc1cc2nccc(Oc3ccc(Br)cc3C(=O)c3ccccc3)c2cc1OC [Compound r70] | 73 | 100 |  |
| Cc1cc(Oc2ccnc3cc(-c4cccc(O)c4)ccc23)c(-c2ccccn2)nc1C [Compound 106, 3-[4-(5,6-Dimethyl-[2,2']bipyridinyl-3-yloxy)-quinolin-7-yl]-phenol] |  |  | inhibition at 3 µM [5]: 99%; inhibition at 10 µM [6]: 100% |
| COc1cc2nccc(Oc3ccc(OCc4ccccc4)cc3C(C)=O)c2cc1OC [Compound r175, 1-[5-Benzyloxy-2-(6,7-dimethoxy-quinotin-4-yloxy)-phenyl]-ethanone] |  |  | inhibition at 3 µM [3]: 13%; inhibition at 10 µM [4]: 60% |
| COc1cc2nccc(Oc3cncc(Cl)c3)c2cc1OC [r208] |  |  | inhibition at 3 µM [3]: 18%; inhibition at 10 µM [4]: 73% |
| COc1cc2c(Oc3cc4cnccc4nc3C)ccnc2cc1OCc1ccccc1 [Compound r406] |  |  | inhibition at 3 µM [3]: 56%; inhibition at 10 µM [4]: 96% |
| CCN(CC)CCCCOc1cc2nccc(Oc3ccc(C)cc3C(=O)c3ccccc3)c2cc1OC [r143] | 97 | 100 |  |
| CCC(=O)c1cc(OC)ccc1Oc1ccnc2cc(OC)c(OC)cc12 [Compound r50] | 100 | 100 |  |
| Cc1cc(Oc2ccnc3ccc(-c4ccccc4)cc23)c(-c2ccccn2)nc1C [Compound 5, 5,6-Dimethyl-3-(6-phenyl-quinolin-4-yloxy)-[2,2']bipyridine] |  |  | inhibition at 3 µM [5]: 79%; inhibition at 10 µM [6]: 100% |
| COc1cc2c(Oc3ccc(C)cc3C(=O)c3ccccc3)ccnc2cc1OCCCCN1CCC(N2CCCC2)CC1 [Compound r145] | 87 | 100 |  |
| CCOC(=O)c1cc(I)ccc1Oc1ccnc2cc(OC)c(OC)cc12 [Compound r86] | 68 | 99 |  |
| COc1ccc2nccc(Oc3cc(C)c(C)nc3-c3ccccn3)c2c1 [Compound 4, 3-(6-Methoxy-quinolin-4-yloxy)-5,6-dimethyl-[2,2']bipyridine] |  |  | inhibition at 1 µM (test compound 1 µM, TGFβ-1 2 ng/ml, 4 hr, Table 1A): 94%; inhibition at 3 µM [5]: 100% |
| CCN(CC)CCOc1cc2nccc(Oc3ccc(C)cc3C(=O)c3ccccc3)c2cc1OC [Compound r125] | 98 | 100 |  |
| COc1cc2nccc(Oc3cc(C)c(C)nc3-c3ccccn3)c2cc1Br [Compound 133, 3-(6-Bromo-7-methoxy-quinolin-4-yloxy)-5,6-dimethyl-[2,2']bip yridine] |  |  | inhibition at 3 µM [5]: 99%; inhibition at 10 µM [6]: 100% |
| CCCCC(=O)c1cc(C)ccc1Oc1ccnc2cc(OC)c(OC)cc12 [Compound r52] | 97 | 100 |  |
| Cc1cc(Oc2ccnc3ccc(-c4ccc[nH]4)cc23)c(-c2ccccn2)nc1C [Compound 168, 5,6-Dimethyl-3-[6-(1H-pyrrol-2-yl)-quinolin-4-yloxy]-[2,2']bipyridine] |  |  | inhibition at 3 µM [5]: 92%; inhibition at 10 µM [6]: 100% |
| COc1cc2c(Oc3ccc(C)cc3C(=O)c3ccccc3)ccnc2cc1OCCCCCl [Compound r141] | 55 | 89 |  |
| COc1cc2nccc(Oc3cc4c5c(c3C=O)CCCN5CCC4)c2cc1OC [Compound r28] | 0 | 53 |  |
| COc1cc2nccc(Oc3c(OC)cccc3C(C)=O)c2cc1OC [Compound r30] | 0 | 61 |  |
